Source: patent publication US20250235543A1, “MODIFIED PROTEINS AND PROTEIN DEGRADERS” (Cullgen (Shanghai), Inc., priority 2021, published 2025)

Experiments:
Format in all cases: cell-based
CDK4, CDK6 = assay: Immunoblot of CDK4 and CDK6 protein levels in Calu-1 cells; conditions: 8 hours, dose range
Method: Specific exemplary heterobifunctional compounds were characterized in Calu-1, BT-549 and other cells. Cells that express cyclin D1-3 and CDK4/6 proteins were treated with heterobifunctional compounds disclosed herein at indicated concentrations for 16 hours. Cells were collected, lysed and subject to immunoblotting using an antibody specific to cyclin D1, cyclin D2, cyclin D3, CDK4, CDK6 or phosphorylated R^b proteins. Tubulin or GAPDH was used as the loading control. DMSO treatment was used as the negative control.
In a time-course study, Calu-1 cells were treated with 500 nM CPD-002, or 100 nM CPD-031 for indicated period of time prior to immunoblotting (FIG. 4A-4B).
To verify that heterobifunctional compound-mediated degradation is dependent on the binding to CDK4-cyclin D complex, we designed three negative control compounds, CPD-042, CPD-049 and CPD-380, which are derived from CPD-002 CPD-031 and CPD-343, respectively. These three control compounds bear the same DDB1 ligand and linker as their corresponding active heterobifunctional compounds but with modified warheads to impair the binding of the control compounds to CDK4. […] Two cereblon (CRBN)-recruiting reference heterobifunctional compounds, CP-10 (Su, J Med Chem, 2019; CAS No.: 2366268-80-4) and BSJ-03-123 (Brand, Cell Chem Biol, 2019; CAS No.: 2361493-16-3) were analyzed in Calu-1 cells.

Calu-1 cells = assay: Anti-viability / anti-proliferation in Calu-1 cells; conditions: 3 days
Method: FIG. 6 show immunoblots of cyclin D1, cyclin D2, cyclin D3, and CDK4 proteins expressed by Calu-1 cells after treatment with a dose range of control compounds CPD-042 (A), or CPD-049 (B) for 16 hours, and anti-viability curves of Calu-1 cells in the presence of CPD-002 and CPD-042 (C), or CPD-031 and CPD-049 (D).
FIG. 11A-11B show immunoblots of cyclin D1, CDK4, and CDK6 proteins expressed by Calu-1 cells after treatment with a dose range of heterobifunctional reference compound CP-10, or BSJ-03-123 for 8 hours (FIG. 11A), and anti-viability curves of Calu-1 cells in the presence of CP-10, or BSJ-03-123 for 3 days (FIG. 11B).
(§1) To verify that heterobifunctional compound-mediated degradation is dependent on the binding to CDK4-cyclin D complex, we designed three negative control compounds, CPD-042, CPD-049 and CPD-380, which are derived from CPD-002 CPD-031 and CPD-343, respectively. These three control compounds bear the same DDB1 ligand and linker as their corresponding active heterobifunctional compounds but with modified warheads to impair the binding of the control compounds to CDK4. […] However, the binding to CDK4 is not sufficient for cyclin D degradation. Two cereblon (CRBN)-recruiting reference heterobifunctional compounds, CP-10 (Su, J Med Chem, 2019; CAS No.: 2366268-80-4) and BSJ-03-123 (Brand, Cell Chem Biol, 2019; CAS No.: 2361493-16-3) were analyzed in Calu-1 cells.

Calu-1 = assay: Cell viability assay, Calu-1; conditions: Calu-1 cells, 96-well plates, serial dilution, 3 days
Method: Cells were treated with CDK4/6 inhibitors palbociclib, ribociclib, or abemaciclib, or heterobifunctional compounds CPD-002 or CPD-031 following a 9-point serial dilution for 3 days.
(§2) Cells were seeded at a density of 2,000-5,000 cells per well in 96-well assay plates and treated with test compounds following a 10-point serial dilution for 3-6 days. Cell viability was determined using the CellTiter-Lumi assay kit according to the manufacturer's instructions. The dose-response curves were determined and IC50 values were calculated using the GraphPad Prism software following a nonlinear regression (least squares fit) method. Data presented was mean±standard deviation (SD) unless otherwise indicated.

[1] = test system: cyclin D1, cyclin D2, cyclin D3, CDK4 and CDK6; assay: Immunoblotting of cyclin D and CDK4/6 protein levels in Calu-1 cells; conditions: indicated concentrations, 8 hours
Method: Calu-1 (FIG. 2A) or BT-549 (FIG. 2B) cells were treated with CPD-002, CPD-004, or palbociclib at indicated concentrations for 16 hours.
Calu-1 cells were treated with CPD-031 at indicated concentrations for 16 hours.
Calu-1 cells were treated with CPD-002 or CPD-031 at 500 nM or 100 nM, respectively for indicated period of time.
Calu-1 cells were pre-treated with DMSO, 20 μM MG-132 (MG), 5 μM MLN4924 (MLN) or 1 μM TAK-243 (TAK) for 2 hours, and subsequently incubated with 500 nM CPD-002, 500 nM CPD-004, or 100 nM CPD-031 for another 4 h or 2 h prior to immunoblotting (FIG. 5A-5B).
Calu-1 cells were treated with a dose range of negative control compounds CPD-042 or CPD-049 for 16 hours (FIG. 6A-6B).
Calu-1 cells were treated with reference compounds CP-10 or BSJ-03-123 at indicated concentrations for 8 hours.
(§3) Cultured cells were washed with cold PBS once and lysed in cold RIPA buffer supplemented with protease inhibitors and phosphatase inhibitors (Beyotime Biotechnology). The solutions were then incubated at 4° C. for 30 min with gentle agitation to fully lysed cells. Cell lysates were centrifuged at 13,000 rpm for 10 min at 4° C. and pellets were discarded. Total protein concentrations in the lysates were determined following BCA assays (Beyotime Biotechnology). Cell lysates were mixed with Laemmli loading buffer and heated at 99° C. for 5 min. Proteins were resolved on SDS-PAGE and visualized using Western ECL Substrate kits on a ChemiDoc MP Imaging system (Bio-Rad). Protein bands were quantitated using the Image Lab software provided by Bio-Rad.

[2] = test system: cyclin D1, cyclin D2, cyclin D3; assay: Immunoblot of cyclin D protein levels in Calu-1 (and BT-549) cells; conditions: Calu-1 cells, 8 hours, dose range
[3] = test system: cyclin D1, cyclin D3, CDK4; assay: Immunoblot of cyclin D and CDK4 degradation in T47D cells; conditions: 48 hours, CPD-380 vs CPD-343
Method: (§4) FIG. 10A-10B show immunoblots of cyclin D1, cyclin D3, CDK4, p-Rb, FoxM1 and cyclin A2 proteins expressed by T47D cells after treatment with a dose range of heterobifunctional compound CPD-343, or its control compound CPD-380 for 48 hours (FIG. 10A), and anti-viability curves of T47D cells in the presence of CP-343, or CPD-380 for 6 days (FIG. 10B).
as §1

T47D cells [4] = assay: Anti-viability / anti-proliferation in T47D cells; conditions: 6 days, CPD-380 vs CPD-343
Method: as §4, §1

T47D cells [5] = assay: Flow cytometric analysis of Annexin V/7-AAD stained T47D cells; conditions: 6 days
Method: ER^+ breast cancer T47D cells were treated with DMSO, palbociclib, heterobifunctional compound CPD-343, or negative control compound CPD-380 for 6 days at doses approximating IC50 and IC90 concentrations determined in FIGS. 10A and 13. Cells were harvested by trypsinization, staining was carried out using the Annexin V Apoptosis Detection Kit. The percentages of early apoptotic (Annexin V^+7-AAD^−, lower right quadrant), late apoptotic (Annexin V^+7-AAD^+, upper right quadrant) and necrotic cells (Annexin V-7-AAD^+, upper left quadrant) are indicated on dot plots. […] Furthermore, we developed one ER^+ breast cancer T47D model with acquired resistance after long period of treatment with 1 μM palbociclib (over IC90). Cells were deemed resistant when growing in the presence of palbo at the same rate as parental cells. Palbo resistance was determined by CellTiter-Lumi cell viability assay.

Cyclin D = assay: Immunoblotting of degradation in T47D cells; conditions: dose range, 48 hours
Method: T47D cells were treated with a dose range of heterobifunctional compound CPD-343 or its negative control compound CPD-380 for 48 hours.
as §3

T47D cells [6] = assay: Cell viability assay, T47D; conditions: 10-point serial dilution, 6 days
Method: T47D cells were seeded in 96-well plates and treated with of CP-343, or CPD-380 following a 10-point serial dilution for 6 days.
as §2

T47D cells [7] = assay: Annexin V apoptosis flow cytometry in T47D cells; conditions: 6 days, doses approximating IC50 and IC90
Method: T47D cells were treated with DMSO, palbociclib, heterobifunctional compound CPD-343, or negative control compound CPD-380 for 6 days at doses approximating IC50 and IC90 concentrations as indicated. Cells were harvested by trypsinization, staining was carried out using the Annexin V Apoptosis Detection Kit.
Assays were performed on the CytoFLEX Cytometer (Beckman Coulter), and data were analyzed using CytExpert software. For cell death and apoptosis analysis, cells were harvested by trypsinization, staining was carried out using the Annexin V Apoptosis Detection Kit (BD Biosciences). Briefly, cells were resuspended in 1× binding buffer and incubated with fluorochrome-conjugated Annexin V and 7-AAD for 15 min in darkness at room temperature.

P300 and CBP [8] = assay: Immunoblot of P300 and CBP protein levels in LNCaP, Calu-1, NCI-H1703 or MM.1R cells; conditions: Calu-1, NCI-H1703 or MM.1R cell lines, 8 hours
Description: Additional exemplary heterobifunctional compounds were designed to modulate the protein levels of either P300/CBP, or BRD4, and characterized in multiple cell lines. […] Taken together, DDB1 ligands conjugating with different target ligands may modulate the cellular target protein levels of cyclin D, CDK4/6, P300/CBP and BRD4.

P300/CBP = P300/CBP cellular protein degradation
Method: as §3

P300 and CBP [9] = assay: Immunoblotting of P300 and CBP protein levels in multiple cell lines; conditions: LNCaP, Calu-1, NCI-H1703, or MM.1R cells, 8 hours
Method: LNCaP, Calu-1, NCI-H1703, or MM.1R cells were treated with CPD-191 at indicated concentrations for 8 hours.
as §3

CC(=O)c1c(C)c2cnc(Nc3ccc(N4CCN(CCOCCOCCOCCNC(=O)COc5cccc6c5C(=O)N(C5CCC(=O)NC5=O)C6=O)CC4)cn3)nc2n(C2CCCC2)c1=O (centres unmarked) [BSJ-03-123, reference compound]
CDK4 and CDK6 protein levels (CDK4, CDK6): significantly reduced
Calu-1 cell growth (Calu-1 cells): did not affect cyclin D1 protein levels (FIG. 11A) or suppress Calu-1 cell growth
cell viability (cellular anti-proliferation activity) (Calu-1): didn't significantly suppress tumor cell viability
CDK4 and CDK6 protein levels [1]: significantly reduced CDK4 and CDK6 protein levels
cyclin DC protein levels [1]: didn't affect cyclin DC protein levels
cyclin D1 protein levels [2]: did not affect

CNc1ccc(C(=O)Nc2ccc(OC)nn2)c(NC(=O)CCOCCOCCNC(=O)CN2CCN(c3ccc(N(C)c4ncc5c(C)c(C(C)=O)c(=O)n(C6CCCC6)c5n4)nc3)CC2)c1 [CPD-380]
decrease of degradation potency versus corresponding active compound [3]: > 15 fold
decrease of cellular anti-proliferation activity versus corresponding active compound (T47D cells [4]): > 20 fold
Annexin V+ population (T47D cells [5]; 10 nM): 7.1%
Annexin V+ population (T47D cells [5]; 200 nM): 28.6%
degradation potencies compared with corresponding active heterobifunctional compound (Cyclin D): much weaker degradation potencies
cell viability (cellular anti-proliferation activity) (T47D cells [6]): much weaker cellular anti-proliferation activities
effect on cell apoptosis (T47D cells [7]): much less effect on cell apoptosis

CC(=O)N1CCc2c(c(N3CCCc4cc(-c5cnn(C)c5)c(C(F)F)cc43)nn2C2CCN(CC(=O)NCCCCNc3ccc(C(=O)Nc4ncc(C)s4)c(C)c3)CC2)C1 [CPD-191]
DC50 (P300 and CBP [8]): < 10 nM
reduction of P300 and CBP protein levels (P300 and CBP [8]; dose range): significantly reduced
P300/CBP Degradation (100 nM) (P300/CBP): A (degradation activity >= 80%)
P300 and CBP protein levels (P300 and CBP [9]): reduced P300 and CBP protein levels in a concentration-dependent manner
